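Method: 48-hour compound exposure of cells in 96-well plates, five concentrations, linear interpolation of endpoints. The concentration for 50% growth inhibition is given as GI50. TGI: total growth inhibition.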
Assays:
Test in all cases: NCI-60 cell line screen, 48 h; in the data active = GI50 below about 0.43 µM; inactive = the rest
[1] = test system: SK-MEL-2 melanoma
[2] = test system: HCT-116 colon
[3] = test system: MDA-MB-435
[4] = test system: M14 melanoma
[5] = test system: SF-295 CNS
[6] = test system: SN12C renal
[7] = test system: SK-MEL-28 melanoma
[8] = test system: LOX IMVI melanoma
[9] = test system: A498 renal
[10] = test system: NCI-H226 lung
[11] = test system: HT29 colon
[12] = test system: MDA-MB-231 breast
[13] = test system: U251 CNS
[14] = test system: 786-0 renal
[15] = test system: SF-268 CNS
[16] = test system: UACC-62 melanoma
[17] = test system: UACC-257 melanoma
[18] = test system: HOP-92 NSCLC
[19] = test system: NCI-H522 lung
[20] = test system: EKVX NSCLC
[21] = test system: COLO 205 colon
[22] = test system: NCI-H23 lung
[23] = test system: OVCAR-3 ovarian
[24] = test system: SNB-19 CNS
[25] = test system: RPMI-8226 leukemia
[26] = test system: MALME-3M melanoma
[27] = test system: OVCAR-5 ovarian
[28] = test system: HCC-2998 colon
[29] = test system: PC-3 prostate
[30] = test system: CAKI-1 renal
[31] = test system: OVCAR-8 ovarian
[32] = test system: SK-MEL-5 melanoma
[33] = test system: SW-620 colon
[34] = test system: MCF7 breast
[35] = test system: UO-31 renal
[36] = test system: SF-539 CNS
[37] = test system: KM12 colon
[38] = test system: OVCAR-4 ovarian
[39] = test system: IGROV1 ovarian
[40] = test system: RXF 393 renal
[41] = test system: HCT-15 colon
[42] = test system: HS 578T breast
[43] = test system: SNB-75 CNS
[44] = test system: HOP-62 NSCLC
[45] = test system: NCI-H460 lung
[46] = test system: SK-OV-3 ovarian
[47] = test system: NCI/ADR-RES ovarian
[48] = test system: TK-10 renal
[49] = test system: T-47D breast
[50] = test system: BT-549 breast
[51] = test system: DU-145 prostate
[52] = test system: A549 NSCLC
[53] = test system: ACHN renal
[54] = test system: MOLT-4 leukemia
[55] = test system: CCRF-CEM leukemia
[56] = test system: SR leukemia
[57] = test system: K-562 leukemia
[58] = test system: HL-60(TB) leukemia

COc1cc(-c2nccc3cc4c(cc23)OCO4)cc(OC)c1OC
inactive: GI50 [1] 3.08 µM | GI50 [2] 4.56 µM | GI50 [4] 3.36 µM | GI50 [5] 2.03 µM | GI50 [6] 7.64 µM | GI50 [7] 16.6 µM | GI50 [8] 6.06 µM | GI50 [9] 2.55 µM | GI50 [10] 16.4 µM | GI50 [11] 2.33 µM | GI50 [12] 16.1 µM | GI50 [13] 4.86 µM | GI50 [14] 7.65 µM | GI50 [15] 5.56 µM | GI50 [16] 4.55 µM | GI50 [17] > 100 µM | GI50 [18] 11.5 µM | GI50 [19] 2.33 µM | GI50 [20] 7.1 µM | GI50 [21] > 100 µM | GI50 [22] 4.73 µM | GI50 [23] 2.09 µM | GI50 [24] 7.34 µM | GI50 [25] 4.98 µM | GI50 [26] 26.9 µM | GI50 [27] 24.9 µM | GI50 [28] 8.68 µM | GI50 [29] 4.25 µM | GI50 [30] 2.52 µM | GI50 [31] 7.08 µM | GI50 [32] 3.16 µM | GI50 [33] 2.77 µM | GI50 [34] 2.88 µM | GI50 [35] 6.99 µM | GI50 [36] 3.31 µM | GI50 [37] 2.27 µM | GI50 [38] > 100 µM | GI50 [39] 8.92 µM | GI50 [40] 3.4 µM | GI50 [41] 3.57 µM | GI50 [42] 1.64 µM | GI50 [43] 2.45 µM | GI50 [44] 7.55 µM | GI50 [45] 3.83 µM | GI50 [46] 4.48 µM | GI50 [47] 2.74 µM | GI50 [48] 5.64 µM | GI50 [49] 5.25 µM | GI50 [50] 16.6 µM | GI50 [51] 3.87 µM | GI50 [52] 7.37 µM | GI50 [53] 9.92 µM
9.57 µM: TGI [42]
3.55 µM: TGI [3]
79.7 µM: TGI [43]
18.3 µM: TGI [40]
10.5 µM: TGI [30]
51.7 µM: TGI [28]
15.2 µM: TGI [9]
active: GI50 [3] 0.411 µM
14.2 µM: TGI [5]
27.4 µM: TGI [19]
4.72 µM: TGI [23]
23.2 µM: TGI [4]
> 100 µM: TGI [1] | TGI [2] | TGI [6] | TGI [7] | TGI [8] | TGI [10] | TGI [11] | TGI [12] | TGI [13] | TGI [14] | TGI [15] | TGI [16] | TGI [17] | TGI [18] | TGI [20] | TGI [21] | TGI [22] | TGI [24] | TGI [25] | TGI [26] | TGI [27] | TGI [29] | TGI [31] | TGI [32] | TGI [33] | TGI [34] | TGI [35] | TGI [37] | TGI [38] | TGI [39] | TGI [41] | TGI [44] | TGI [45] | TGI [46] | TGI [47] | TGI [48] | TGI [49] | TGI [50] | TGI [51] | TGI [52] | TGI [53]
44.1 µM: TGI [36]

COc1ccccc1C1C(C#N)=C(N)Oc2cc(O)ccc21 (stereo unspecified)
94.1 µM: TGI [51]
33.7 µM: TGI [18]
68.2 µM: TGI [47]
91 µM: TGI [15]
19.8 µM: TGI [25]
inactive: GI50 [54] 13.1 µM | GI50 [55] 12 µM | GI50 [1] 23 µM | GI50 [2] 12.5 µM | GI50 [3] 4.1 µM | GI50 [4] 13.4 µM | GI50 [5] 16 µM | GI50 [6] 11.6 µM | GI50 [7] 25 µM | GI50 [8] 30.8 µM | GI50 [9] 36.8 µM | GI50 [10] 13.7 µM | GI50 [11] 16 µM | GI50 [12] 4.34 µM | GI50 [13] 19.8 µM | GI50 [15] 19.4 µM | GI50 [17] 27.7 µM | GI50 [18] 4.77 µM | GI50 [19] 3.15 µM | GI50 [20] 34.6 µM | GI50 [21] 15.8 µM | GI50 [22] 17.6 µM | GI50 [56] 3.48 µM | GI50 [23] 13 µM | GI50 [24] 21.3 µM | GI50 [25] 5.99 µM | GI50 [26] 21.6 µM | GI50 [27] 29.2 µM | GI50 [28] 11.7 µM | GI50 [57] 4.68 µM | GI50 [30] 17.7 µM | GI50 [31] 35.2 µM | GI50 [32] 22.4 µM | GI50 [33] 29.1 µM | GI50 [34] 17.7 µM | GI50 [35] 29.3 µM | GI50 [58] 18.8 µM | GI50 [36] 24.7 µM | GI50 [37] 9.57 µM | GI50 [38] 25.3 µM | GI50 [39] 1.98 µM | GI50 [40] 23.2 µM | GI50 [41] 23.9 µM | GI50 [42] 34.1 µM | GI50 [43] 23 µM | GI50 [44] 15.8 µM | GI50 [45] 20 µM | GI50 [46] 16.8 µM | GI50 [47] 8.56 µM | GI50 [48] 27.6 µM | GI50 [49] 13.9 µM | GI50 [50] 24 µM | GI50 [51] 26 µM | GI50 [52] 26.8 µM | GI50 [53] 22.3 µM
80.4 µM: TGI [50]
24.8 µM: TGI [12]
60.2 µM: TGI [44]
35.5 µM: TGI [28]
75.6 µM: TGI [40]
99.8 µM: TGI [24]
49.7 µM: TGI [34]
56.4 µM: TGI [43]
29.1 µM: TGI [55]
62.6 µM: TGI [13]
85.9 µM: TGI [38]
26.4 µM: TGI [2]
71.9 µM: TGI [32]
51.4 µM: TGI [23]
86.1 µM: TGI [7]
9.52 µM: TGI [3]
25.4 µM: TGI [39]
44.6 µM: TGI [46]
21.1 µM: TGI [56]
68.9 µM: TGI [30]
88.6 µM: TGI [26]
17.1 µM: TGI [19]
58.8 µM: TGI [45]
66 µM: TGI [36]
76.3 µM: TGI [49]
94.6 µM: TGI [17]
35 µM: TGI [4] | TGI [10]
36.6 µM: TGI [21]
80.6 µM: TGI [5]
84 µM: TGI [53]
45.4 µM: TGI [54]
31.1 µM: TGI [6]
> 100 µM: TGI [1] | TGI [8] | TGI [9] | TGI [20] | TGI [27] | TGI [57] | TGI [31] | TGI [33] | TGI [35] | TGI [58] | TGI [37] | TGI [41] | TGI [42] | TGI [48] | TGI [52]
49.4 µM: TGI [22]
45.1 µM: TGI [11]

Reference: PubChem BioAssay (NCI)
